From ChEMBL document CHEMBL3351422, “Discovery of N-substituted 7-azaindoline derivatives as potent, orally available M1 and M4 muscarinic acetylcholine receptors selective agonists” (Bioorg Med Chem Lett, 2014)

Tests used:
[1] = biological target: T1, Muscarinic acetylcholine receptor M4 (Homo sapiens) (UniProt P08173); test: Agonist activity at muscarinic M4 receptor (unknown origin) at 1 uM by calcium mobilization assay; assay type: functional
T1 sequence (whole entry): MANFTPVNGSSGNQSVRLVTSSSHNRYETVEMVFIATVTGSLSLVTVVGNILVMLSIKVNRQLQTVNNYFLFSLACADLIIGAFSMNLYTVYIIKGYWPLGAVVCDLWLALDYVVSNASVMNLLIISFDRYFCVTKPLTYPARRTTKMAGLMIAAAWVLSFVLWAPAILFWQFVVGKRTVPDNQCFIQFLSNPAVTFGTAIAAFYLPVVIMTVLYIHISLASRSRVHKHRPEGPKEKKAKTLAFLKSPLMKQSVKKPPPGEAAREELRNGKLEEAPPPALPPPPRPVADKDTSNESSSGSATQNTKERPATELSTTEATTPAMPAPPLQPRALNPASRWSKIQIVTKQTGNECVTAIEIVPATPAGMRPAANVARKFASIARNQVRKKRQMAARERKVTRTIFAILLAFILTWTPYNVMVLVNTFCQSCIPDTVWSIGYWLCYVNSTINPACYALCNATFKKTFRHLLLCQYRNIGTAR

[2] = biological target: Voltage-gated inwardly rectifying potassium channel KCNH2 (Homo sapiens, UniProt Q12809); test: Inhibition of human ERG channel
Chain of Voltage-gated inwardly rectifying potassium channel KCNH2 (Q12809 whole entry): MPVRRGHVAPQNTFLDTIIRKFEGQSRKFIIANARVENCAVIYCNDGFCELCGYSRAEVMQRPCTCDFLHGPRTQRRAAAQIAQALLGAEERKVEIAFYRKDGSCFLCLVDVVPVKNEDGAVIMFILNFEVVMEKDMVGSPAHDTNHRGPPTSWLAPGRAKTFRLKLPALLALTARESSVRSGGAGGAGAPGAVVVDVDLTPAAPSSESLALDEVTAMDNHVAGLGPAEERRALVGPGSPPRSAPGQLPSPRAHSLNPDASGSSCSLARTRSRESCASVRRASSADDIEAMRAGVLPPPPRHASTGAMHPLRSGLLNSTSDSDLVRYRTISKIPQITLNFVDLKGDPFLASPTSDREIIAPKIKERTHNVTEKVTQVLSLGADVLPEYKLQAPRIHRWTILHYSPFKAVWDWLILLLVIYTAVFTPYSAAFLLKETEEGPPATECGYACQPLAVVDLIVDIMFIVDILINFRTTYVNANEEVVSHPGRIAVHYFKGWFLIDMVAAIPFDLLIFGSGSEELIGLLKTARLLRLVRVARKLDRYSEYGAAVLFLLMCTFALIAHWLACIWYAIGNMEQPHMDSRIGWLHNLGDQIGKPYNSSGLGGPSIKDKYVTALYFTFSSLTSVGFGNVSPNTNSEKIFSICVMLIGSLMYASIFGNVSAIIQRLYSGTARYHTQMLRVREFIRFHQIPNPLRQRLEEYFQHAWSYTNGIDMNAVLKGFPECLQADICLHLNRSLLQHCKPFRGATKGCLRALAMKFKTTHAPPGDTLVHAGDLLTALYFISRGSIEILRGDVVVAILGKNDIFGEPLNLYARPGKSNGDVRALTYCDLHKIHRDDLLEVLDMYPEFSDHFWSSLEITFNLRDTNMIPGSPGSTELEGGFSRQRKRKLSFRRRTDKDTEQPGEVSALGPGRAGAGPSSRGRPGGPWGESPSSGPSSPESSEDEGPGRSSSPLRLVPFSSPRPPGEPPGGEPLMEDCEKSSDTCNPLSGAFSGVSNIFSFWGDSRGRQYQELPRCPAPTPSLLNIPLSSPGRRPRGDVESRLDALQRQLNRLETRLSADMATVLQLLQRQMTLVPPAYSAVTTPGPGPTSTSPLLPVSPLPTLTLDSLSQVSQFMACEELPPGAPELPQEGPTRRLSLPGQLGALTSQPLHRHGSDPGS

[3] = biological target: T2, Muscarinic acetylcholine receptor M1 (Homo sapiens) (UniProt P11229); test: Agonist activity at muscarinic M1 receptor (unknown origin) at 1 uM by calcium mobilization assay; assay type: functional
T2 sequence (whole entry): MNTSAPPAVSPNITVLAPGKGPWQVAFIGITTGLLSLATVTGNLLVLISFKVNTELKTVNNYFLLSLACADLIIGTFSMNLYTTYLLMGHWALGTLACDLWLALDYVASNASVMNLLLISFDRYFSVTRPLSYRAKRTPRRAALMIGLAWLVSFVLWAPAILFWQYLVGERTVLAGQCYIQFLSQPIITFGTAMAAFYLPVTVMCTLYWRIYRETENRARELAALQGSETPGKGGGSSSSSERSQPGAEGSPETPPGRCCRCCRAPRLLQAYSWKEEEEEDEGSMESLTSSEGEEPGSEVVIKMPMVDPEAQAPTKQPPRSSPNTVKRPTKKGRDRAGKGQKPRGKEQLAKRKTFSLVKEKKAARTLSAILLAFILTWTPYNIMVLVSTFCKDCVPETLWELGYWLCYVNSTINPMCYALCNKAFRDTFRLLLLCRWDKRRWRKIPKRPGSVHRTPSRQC

[4] = biological target: T3, Muscarinic acetylcholine receptor M2 (Homo sapiens) (UniProt P08172); test: Agonist activity at muscarinic M2 receptor (unknown origin) at 1 uM by calcium mobilization assay; assay type: functional
T3 sequence (whole entry): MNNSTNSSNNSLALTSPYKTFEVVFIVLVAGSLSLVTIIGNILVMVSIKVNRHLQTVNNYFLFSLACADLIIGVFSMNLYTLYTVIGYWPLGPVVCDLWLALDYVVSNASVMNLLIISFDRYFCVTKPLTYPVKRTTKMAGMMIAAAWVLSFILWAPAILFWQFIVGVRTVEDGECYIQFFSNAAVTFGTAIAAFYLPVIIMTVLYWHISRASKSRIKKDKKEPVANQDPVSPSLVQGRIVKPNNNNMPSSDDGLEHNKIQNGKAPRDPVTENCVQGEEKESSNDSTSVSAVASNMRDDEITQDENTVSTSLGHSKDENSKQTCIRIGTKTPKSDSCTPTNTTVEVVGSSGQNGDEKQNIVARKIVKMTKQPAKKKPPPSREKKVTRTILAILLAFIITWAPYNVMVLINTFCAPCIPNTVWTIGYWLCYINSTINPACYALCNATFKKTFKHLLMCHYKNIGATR

[5] = biological target: T4, Muscarinic acetylcholine receptor M5 (Homo sapiens) (UniProt P08912); test: Agonist activity at muscarinic M5 receptor (unknown origin) at 10 uM by calcium mobilization assay; assay type: functional
T4 sequence (whole entry): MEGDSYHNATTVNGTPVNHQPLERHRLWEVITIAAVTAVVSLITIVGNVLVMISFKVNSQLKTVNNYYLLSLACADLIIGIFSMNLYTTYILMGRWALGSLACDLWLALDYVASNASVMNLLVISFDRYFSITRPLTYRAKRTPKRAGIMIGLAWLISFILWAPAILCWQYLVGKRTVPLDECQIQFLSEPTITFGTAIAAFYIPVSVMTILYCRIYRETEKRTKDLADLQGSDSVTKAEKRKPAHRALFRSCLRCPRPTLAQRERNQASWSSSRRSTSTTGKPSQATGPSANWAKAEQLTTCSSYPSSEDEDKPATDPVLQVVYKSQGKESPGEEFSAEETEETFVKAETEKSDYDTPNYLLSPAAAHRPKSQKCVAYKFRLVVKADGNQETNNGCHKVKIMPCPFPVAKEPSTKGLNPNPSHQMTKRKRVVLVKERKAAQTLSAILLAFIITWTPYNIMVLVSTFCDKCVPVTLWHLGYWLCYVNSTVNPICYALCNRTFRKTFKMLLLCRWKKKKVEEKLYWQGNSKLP

[6] = biological target: Muscarinic acetylcholine receptor M3 (Homo sapiens) (UniProt P20309); test: Agonist activity at muscarinic M3 receptor (unknown origin) at 1 uM by calcium mobilization assay; assay type: functional
Chain of Muscarinic acetylcholine receptor M3 (Homo sapiens) (P20309 whole entry, looked up): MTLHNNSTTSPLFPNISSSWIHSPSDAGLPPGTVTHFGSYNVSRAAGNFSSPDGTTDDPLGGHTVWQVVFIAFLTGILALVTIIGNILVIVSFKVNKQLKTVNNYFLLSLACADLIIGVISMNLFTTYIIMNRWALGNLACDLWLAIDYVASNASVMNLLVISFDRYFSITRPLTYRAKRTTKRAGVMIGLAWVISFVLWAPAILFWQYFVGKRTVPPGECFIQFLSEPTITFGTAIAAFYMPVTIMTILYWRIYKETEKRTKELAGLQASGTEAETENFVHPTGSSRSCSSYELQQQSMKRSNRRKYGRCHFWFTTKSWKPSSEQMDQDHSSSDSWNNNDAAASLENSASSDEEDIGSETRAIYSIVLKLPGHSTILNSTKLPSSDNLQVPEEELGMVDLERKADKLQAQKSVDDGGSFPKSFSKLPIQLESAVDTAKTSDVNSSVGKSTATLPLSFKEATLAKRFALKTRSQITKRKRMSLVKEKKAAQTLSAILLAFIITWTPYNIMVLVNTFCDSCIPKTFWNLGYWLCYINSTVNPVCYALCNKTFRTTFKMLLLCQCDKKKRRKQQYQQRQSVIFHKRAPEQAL

[7] = biological target: T1, Muscarinic acetylcholine receptor M4 (Homo sapiens); test: Agonist activity at muscarinic M4 receptor (unknown origin) at 0.3 uM by calcium mobilization assay; assay type: functional
[8] = Lipophilicity, log P of the compound; assay type: physicochemical; conditions: octanol/water
[9] = biological target: Muscarinic acetylcholine receptor M3 (Homo sapiens) (UniProt P20309); test: Agonist activity at muscarinic M3 receptor (unknown origin) at 0.3 uM by calcium mobilization assay; assay type: functional
[10] = biological target: T3, Muscarinic acetylcholine receptor M2 (Homo sapiens); test: Agonist activity at muscarinic M2 receptor (unknown origin) at 0.3 uM by calcium mobilization assay; assay type: functional
[11] = biological target: T2, Muscarinic acetylcholine receptor M1 (Homo sapiens); test: Agonist activity at muscarinic M1 receptor (unknown origin) at 0.3 uM by calcium mobilization assay; assay type: functional
[12] = Oral bioavailability in rat at 2.5 mg/kg; assay type: ADME, organism-based; conditions: in vivo
[13] = Clearance in rat at 0.25 mg/kg, iv and 2.5 mg/kg, po; assay type: ADME, organism-based; conditions: in vivo

| Compound | Activity [1] | Activity [3] | Activity [4] | Activity [5] | Activity [6] | Activity [7] | further results |
| --- | --- | --- | --- | --- | --- | --- | --- |
| CCNC(=O)N1CC2(CCN(CC3CCN(C(=O)OCC)CC3)CC2)c2cccnc21 | 77% | 55% | 13% | 11% | 5% |  | IC50 [2]: 0.23 µM |
| CCOC(=O)N1CCC(CN2CCC3(CC2)CN(C(=O)N2CCC2)c2ncccc23)CC1 |  |  |  |  |  | 29% |  |
| CCOC(=O)N1CCC(CN2CCC3(CC2)CN(CC)c2ncccc23)CC1 | 58% | 34% | 14% | 17% | 6% |  |  |
| CCOC(=O)N1CCC(CN2CCC3(CC2)CN(C(=O)NC)c2ncccc23)CC1 |  |  |  | 17% |  | 98% | logP [8]: 2.5; Activity [9]: 8%; Activity [10]: 7%; IC50 [2]: 0.3 µM; Activity [11]: 74% |
| CCOC(=O)N1CCC(CN2CCC3(CC2)CC(=O)N(CC)c2ncccc23)CC1 | 134% | 91% | 20% | 3% | 2% |  | bioavailability [12]: 2.6%; clearance [13]: 2.96 L/h/kg |
| CCOC(=O)N1CCC(CN2CCC3(CC2)OC(=O)N(C)c2ncccc23)CC1 |  |  |  |  |  |  | clearance [13]: 4.3 L/h/kg |
| CCOC(=O)N1CCC(CN2CCC3(CC2)OC(=O)Nc2ncccc23)CC1 |  |  |  |  |  |  | clearance [13]: 1.05 L/h/kg |
| CCOC(=O)N1CCC(CN2CCC3(CC2)CN(C(=O)N2CCCC2)c2ncccc23)CC1 |  |  |  |  |  | 10% |  |
| CCOC(=O)N1CCC(CN2CCC3(CC2)CN(C(=O)OC)c2ncccc23)CC1 | 7% |  |  |  |  |  |  |
| CCOC(=O)N1CCC(CN2CCC3(CC2)CN(C(N)=O)c2ncccc23)CC1 |  |  |  | 8% |  | 103% | logP [8]: 2; Activity [9]: 11%; Activity [10]: 17%; Activity [11]: 99% |
| CCOC(=O)N1CCC(CN2CCC3(CC2)CN(S(C)(=O)=O)c2ncccc23)CC1 |  |  |  | 3% |  | 88% | Activity [9]: 7%; Activity [10]: 12%; Activity [11]: 20% |
| CCOC(=O)N1CCC(CN2CCC3(CC2)CN(C(=O)N(CC)CC)c2ncccc23)CC1 | 132% | 52% | 23% | 9% | 4% |  | IC50 [2]: 2.54 µM |
